From BindingDB's records for doi:10.1021/jm00053a012 (Washington University, 1993)

Target: calcium-independent phospholipase A2 (Canis familiaris)
Test: Compounds were evaluated for the inhibitory activity against canine myocardial cytosolic calcium-independent phospholipase A2.

Structure (SMILES) | IC50
O=C1O/C(=C/I)CCC1c1cccc2ccccc12 (configuration not stated) [(E)-6-Iodomethylene-3-naphthalen-1-yl-tetrahydro-pyran-2-one] | 30 nM
O=C1O/C(=C\I)CCC1c1cccc2ccccc12 (configuration not stated) [(Z)-6-(iodomethylene)-3-(naphthalen-1-yl)tetrahydro-2H-pyran-2-one] | 190 nM
